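Exposure lasted 48 hours, with cells grown in 96-well plates and compounds tested at five concentrations. Abbreviation: GI50, concentration required for 50% inhibition of growth. TGI: concentration producing complete growth inhibition.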
What was measured:
Assay in all cases: DTP human tumour cell line panel, 48 h
[1] = system: U251 CNS
[2] = system: SNB-19 CNS
[3] = system: HCT-116 colon
[4] = system: COLO 205 colon
[5] = system: SN12C renal
[6] = system: MALME-3M melanoma
[7] = system: SK-OV-3 ovarian
[8] = system: BT-549 breast
[9] = system: A549 NSCLC
[10] = system: CCRF-CEM leukemia
[11] = system: HOP-62 NSCLC
[12] = system: SR leukemia
[13] = system: SK-MEL-5 melanoma
[14] = system: EKVX NSCLC
[15] = system: M14 melanoma
[16] = system: SF-295 CNS
[17] = system: NCI/ADR-RES ovarian
[18] = system: CAKI-1 renal
[19] = system: NCI-H226 lung
[20] = system: TK-10 renal
[21] = system: DU-145 prostate
[22] = system: HCT-15 colon
[23] = system: ACHN renal
[24] = system: KM12 colon
[25] = system: OVCAR-8 ovarian
[26] = system: HOP-92 NSCLC
[27] = system: 786-0 renal
[28] = system: MDA-MB-435
[29] = system: HL-60(TB) leukemia
[30] = system: OVCAR-3 ovarian
[31] = system: OVCAR-5 ovarian
[32] = system: NCI-H460 lung
[33] = system: SK-MEL-28 melanoma
[34] = system: UO-31 renal
[35] = system: HT29 colon
[36] = system: SF-268 CNS
[37] = system: LOX IMVI melanoma
[38] = system: RXF 393 renal
[39] = system: MCF7 breast
[40] = system: UACC-257 melanoma
[41] = system: MOLT-4 leukemia
[42] = system: SNB-75 CNS
[43] = system: MDA-MB-231 breast
[44] = system: SF-539 CNS
[45] = system: NCI-H23 lung
[46] = system: SW-620 colon
[47] = system: K-562 leukemia
[48] = system: PC-3 prostate
[49] = system: UACC-62 melanoma
[50] = system: SK-MEL-2 melanoma
[51] = system: OVCAR-4 ovarian
[52] = system: IGROV1 ovarian
[53] = system: T-47D breast

`O=C(O)c1ccc2c(c1Nc1ccccc1)C(=O)c1ccccc1C2=O` gave a GI50 [1] of 47 µM, a TGI [1] greater than 100 µM and a GI50 [2] of 49.3 µM. It also gave a TGI [2] greater than 100 µM, a GI50 [3] of 26.6 µM and a TGI [3] greater than 100 µM. It also gave a GI50 [4] of 38.9 µM, a TGI [4] greater than 100 µM and a GI50 [5] of 50.3 µM. For the same compound, the TGI [5] was greater than 100 µM, the GI50 [6] was 54.6 µM and the TGI [6] was greater than 100 µM. The GI50 [7] was 34.2 µM, the TGI [7] was greater than 100 µM and the GI50 [8] was 16.5 µM. The TGI [8] was 70 µM, the GI50 [9] was 51.2 µM and the TGI [9] was greater than 100 µM. For the same compound, the GI50 [10] was 40.5 µM, the TGI [10] was greater than 100 µM and the GI50 [11] was 35.6 µM. The TGI [11] was greater than 100 µM, the GI50 [12] was 41 µM and the TGI [12] was greater than 100 µM. It also gave a GI50 [13] of 73.1 µM, a TGI [13] greater than 100 µM and a GI50 [14] of 19.9 µM. The TGI [14] was greater than 100 µM, the GI50 [15] was 38.1 µM and the TGI [15] was greater than 100 µM. It also gave a GI50 [16] of 20.3 µM, a TGI [16] greater than 100 µM and a GI50 [17] of 52.3 µM. For the same compound, the TGI [17] was greater than 100 µM, the GI50 [18] was 16 µM and the TGI [18] was 47.1 µM. The GI50 [19] was 24.2 µM, the TGI [19] was greater than 100 µM and the GI50 [20] was 98.5 µM. The TGI [20] was greater than 100 µM, the GI50 [21] was 82.8 µM and the TGI [21] was greater than 100 µM. The GI50 [22] was 72.8 µM, the TGI [22] was greater than 100 µM and the GI50 [23] was 39.7 µM. The TGI [23] was greater than 100 µM, the GI50 [24] was 61.1 µM and the TGI [24] was greater than 100 µM. The GI50 [25] was 72.6 µM, the TGI [25] was greater than 100 µM and the GI50 [26] was 27.9 µM. The TGI [26] was greater than 100 µM, the GI50 [27] was 39.4 µM and the TGI [27] was greater than 100 µM. For the same compound, the GI50 [28] was 48.1 µM, the TGI [28] was greater than 100 µM and the GI50 [29] was 79.3 µM. It also gave a TGI [29] greater than 100 µM, a GI50 [30] of 20.7 µM and a TGI [30] greater than 100 µM. It also gave a GI50 [31] greater than 100 µM, a TGI [31] greater than 100 µM and a GI50 [32] of 27.3 µM. It also gave a TGI [32] greater than 100 µM, a GI50 [33] greater than 100 µM and a TGI [33] greater than 100 µM. For the same compound, the GI50 [34] was 11.8 µM, the TGI [34] was greater than 100 µM and the GI50 [35] was 98.4 µM. It also gave a TGI [35] greater than 100 µM, a GI50 [36] of 34.6 µM and a TGI [36] greater than 100 µM. For the same compound, the GI50 [37] was 28.9 µM, the TGI [37] was greater than 100 µM and the GI50 [38] was 26.3 µM. The TGI [38] was greater than 100 µM, the GI50 [39] was 38.1 µM and the TGI [39] was greater than 100 µM. For the same compound, the GI50 [40] was 54.8 µM, the TGI [40] was greater than 100 µM and the GI50 [41] was greater than 100 µM. The TGI [41] was greater than 100 µM, the GI50 [42] was 46.7 µM and the TGI [42] was greater than 100 µM. The GI50 [43] was 46.2 µM, the TGI [43] was greater than 100 µM and the GI50 [44] was 56.2 µM. The TGI [44] was greater than 100 µM, the GI50 [45] was 19 µM and the TGI [45] was greater than 100 µM. The GI50 [46] was 44.1 µM, the TGI [46] was greater than 100 µM and the GI50 [47] was 68.5 µM. For the same compound, the TGI [47] was greater than 100 µM, the GI50 [48] was 54.1 µM and the TGI [48] was greater than 100 µM. It also gave a GI50 [49] of 35.6 µM, a TGI [49] greater than 100 µM and a GI50 [50] of 51.7 µM. It also gave a TGI [50] greater than 100 µM, a GI50 [51] of 86.1 µM and a TGI [51] greater than 100 µM. It also gave a GI50 [52] of 16.2 µM, a TGI [52] greater than 100 µM and a GI50 [53] of 45.6 µM. For the same compound, the TGI [53] was greater than 100 µM.
